This is an account of results in patent US20210163437A1, “DERIVATIVES OF TRICYCLIC SPIROLACTONES AND USES THEREOF IN TREATMENT AND MANAGEMENT OF PAIN” (Yissum Research Development Company of The Hebrew …, priority 2017, published 2021).

For orientation: EC50 means the concentration at which the effect is half-maximal.

Holding throughout (format): cell-based
For test [1], the target named is T1, rat TRPV1 (rTRPV1) (Rattus norvegicus, UniProt O35433).
T1 construct: expressed in transfected cells; host or cells: HEK293T (transient)
Nature of the test: live-cell calcium imaging of HEK293T cells transiently expressing rat TRPV1. The following applies: for compound-evoked calcium response normalized to the capsaicin (2 μM)-evoked response: compound 300 μM (0.3 mM), fura-2-loaded HEK293T transiently expressing rTRPV1, only capsaicin positive cells analyzed. On the procedure: (3A) Top: Captured pseudocolor images of fura-2-loaded HEK293T cells transiently expressing rTRPV1, before (“Basal”) and after the application of synthesized tricyclic spirolactones (300 μM; ‘Comp.’), followed by the subsequent application of capsaicin (2 μM; “Cap”). Scale bar indicates level of intracellular calcium. Bottom: Box and whiskers plot showing the indicated compound (300 μM)-evoked calcium response of HEK293T cells expressing rTRPV1, normalized to the capsaicin (2 μM)-evoked response. Boxes represent the mean of 3-4 independent experiments (each n≥50 cells); only capsaicin-positive cells were analyzed. Statistical significance between the different compounds' normalized responses is indicated as follows: *p≤0.05; ***p≤0.001; ns, no statistical significance (ANOVA followed by multiple comparison test). (3B) Top: Captured pseudocolor images of fura-2-loaded HEK293T cells transiently expressing the wt rTRPV1 (“rV1”; top), chicken TRPV1 (“cV1”; middle), or the VBS mutated receptor rTRPV1-Y511G (“YG”; bottom), before (“Basal”) and after the application of compound 13 (300 μM; “13”), which was followed by the subsequent application of 2-APB (300 μM; “2APB”). Scale bar indicates level of intracellular calcium. Bottom: changes with time of intracellular calcium levels in fura-2-loaded HEK293T expressing rat TRPV1 (“rTRPV1”; red line), rat TRPV1-Y511G (“rTRPV1(YG)”; purple line), and chicken TRPV1 (“cTRPV1”; orange line) in response to compound 13 (300 μM; “13”; light gray bar), which was followed by the subsequent application of 2-APB (300 μM; “2APB”; gray bar). Each trace represents an average of 75-130 cells sensitive to 2-APB. […] (3C) Top: Captured pseudocolor images of fura-2-loaded HEK293T cells transiently expressing rTRPV1, before (“Basal”) and after the application of saturated tricyclic spirolactones (300 μM; “Comp.”), which was followed by the subsequent application of capsaicin (2 μM; “Cap”). Scale bar indicates the level of intracellular calcium. […] Boxes represent the mean of 3-4 independent experiments (each n≥50 cells); only capsaicin positive cells were analyzed. Statistical significance between the different compounds' normalized responses is indicated as follows: **p≤0.01; ***p≤0.001; ns, no statistical significance (ANOVA followed by multiple comparison test).
(§1) To examine whether the compact tricyclic spirolactones activate TRPV1, we scanned a library of synthesized compounds illustrated in FIG. 2C. […] To test this possibility, we recoded the response of rTRPV1 transiently expressed in HEK293T cells in the whole-cell or inside-out patch clamp configurations.

Test [2] has as its target T2, rTRPV1 (Rattus norvegicus, UniProt O35433).
T2 construct: expressed in transfected cells
The test can be described thus: calcium imaging of rTRPV1 stably expressed in HEK293 cells (concentration-response, capsazepine block). The following applies: for EC50 / Hill coefficient n: normalized concentration-response, fit to the Hill equation, rTRPV1 stably expressed in HEK293 cells. An excerpt:
(§2) Each point represents the average (±SEM) response of 50 cells. […] Scale bar indicates level of intracellular calcium.
To further analyze the role of the aromatic anchor in TRPV1 activation by spirolactones, we compared the affinity of 13 to its vanilloid derivative 32.

The test system of another test is chicken TRPV1. Nature of the test: live-cell calcium imaging of HEK293T cells transiently expressing chicken TRPV1. The following applies: compound 300 μM; followed by 2-APB 300 μM. On the procedure: (§3) (3A) Top: Captured pseudocolor images of fura-2-loaded HEK293T cells transiently expressing rTRPV1, before (“Basal”) and after the application of synthesized tricyclic spirolactones (300 μM; ‘Comp.’), followed by the subsequent application of capsaicin (2 μM; “Cap”). Scale bar indicates level of intracellular calcium. Bottom: Box and whiskers plot showing the indicated compound (300 μM)-evoked calcium response of HEK293T cells expressing rTRPV1, normalized to the capsaicin (2 μM)-evoked response. Boxes represent the mean of 3-4 independent experiments (each n≥50 cells); only capsaicin-positive cells were analyzed. Statistical significance between the different compounds' normalized responses is indicated as follows: *p≤0.05; ***p≤0.001; ns, no statistical significance (ANOVA followed by multiple comparison test). (3B) Top: Captured pseudocolor images of fura-2-loaded HEK293T cells transiently expressing the wt rTRPV1 (“rV1”; top), chicken TRPV1 (“cV1”; middle), or the VBS mutated receptor rTRPV1-Y511G (“YG”; bottom), before (“Basal”) and after the application of compound 13 (300 μM; “13”), which was followed by the subsequent application of 2-APB (300 μM; “2APB”). Scale bar indicates level of intracellular calcium. […] Boxes represent the mean of 3-4 independent experiments (each n≥50 cells); only capsaicin positive cells were analyzed. […]

For test [3], the system named is acutely dissociated trigeminal ganglia neurons. Nature of the test: neuronal response of acutely dissociated trigeminal ganglia neurons. The following applies: compared with capsaicin sensitivity. On the procedure: To examine whether the compact tricyclic spirolactones activate TRPV1, we scanned a library of synthesized compounds illustrated in FIG. 2C. […] Although our compounds are less hydrophobic than other VBS-binding molecules (e.g., capsaicin), most synthesized compounds could not be prepared in physiological salt solutions (i.e., Ringer) at concentrations greater than 1 mM without adding cytotoxic levels of DMSO. […] To confirm that the observed calcium increase is a direct result of TRPV1 activation through the VBS, we used chicken TRPV1, which is insensitive to vanilloids28, and VBS-mutated rat TRPV1 (rTRPV1(Y511G)). […] The functionality and expression of these channels were verified by their sensitivity to 2-aminoethoxydiphenyl borate (2-APB), a non-VBS TRPV1 activator. We next investigated the selectivity of compound 13 to TRPV1 by examining the neuronal response of acutely dissociated trigeminal ganglia neurons. […] A possible explanation to the observed lower response of 13 in comparison to capsaicin might be the accessibility of the compound to the intracellular VBS. To test this possibility, we recoded the response of rTRPV1 transiently expressed in HEK293T cells in the whole-cell or inside-out patch clamp configurations.

The target in another test is T3, rTRPV1(Y511G) (Rattus norvegicus, UniProt O35433, Y511G).
T3 construct: expressed in transfected cells; host or cells: HEK293T (transient)
Nature of the test: live-cell calcium imaging of HEK293T cells transiently expressing VBS-mutated rat TRPV1. The following applies: compound 300 μM; followed by 2-APB 300 μM. The method, then:
as §3

Test [4] addresses T1, rat TRPV1 (rTRPV1). The test can be described thus: live-cell calcium imaging of HEK293T cells transiently expressing rat TRPV1. Conditions: compound 18 at 0.3 mM or 1 mM applied before compound 13 (1 mM).
The target in test [5] is T2, rTRPV1. The test can be described thus: patch clamp of rTRPV1 transiently expressed in HEK293T cells. Conditions: voltage ramps between −80 and +80 mV; compound 32 1 mM, capsaicin 2 μM.
Source text: as §2, §1
TRPV1 is a non-selective cationic ion channel with a typical current profile. To examine whether our novel structure architecture activates the channel similarly as other VBS -associated agonists, we analyzed the current profile using the whole-cell configuration of the patch clamp technique. Using voltage ramps between −80 and +80 mV, we analyzed the channel response to 32 and capsaicin.
In general terms: The patch-clamp technique gives a direct electrical read-out from membranes.

Where “and” joins values, the source holds several entries; their conditions need not be identical. Equal entries are not always repeated. Entries after “also recorded” stand apart in the source; their conditions may differ.

T1 sequence (O35433 whole entry): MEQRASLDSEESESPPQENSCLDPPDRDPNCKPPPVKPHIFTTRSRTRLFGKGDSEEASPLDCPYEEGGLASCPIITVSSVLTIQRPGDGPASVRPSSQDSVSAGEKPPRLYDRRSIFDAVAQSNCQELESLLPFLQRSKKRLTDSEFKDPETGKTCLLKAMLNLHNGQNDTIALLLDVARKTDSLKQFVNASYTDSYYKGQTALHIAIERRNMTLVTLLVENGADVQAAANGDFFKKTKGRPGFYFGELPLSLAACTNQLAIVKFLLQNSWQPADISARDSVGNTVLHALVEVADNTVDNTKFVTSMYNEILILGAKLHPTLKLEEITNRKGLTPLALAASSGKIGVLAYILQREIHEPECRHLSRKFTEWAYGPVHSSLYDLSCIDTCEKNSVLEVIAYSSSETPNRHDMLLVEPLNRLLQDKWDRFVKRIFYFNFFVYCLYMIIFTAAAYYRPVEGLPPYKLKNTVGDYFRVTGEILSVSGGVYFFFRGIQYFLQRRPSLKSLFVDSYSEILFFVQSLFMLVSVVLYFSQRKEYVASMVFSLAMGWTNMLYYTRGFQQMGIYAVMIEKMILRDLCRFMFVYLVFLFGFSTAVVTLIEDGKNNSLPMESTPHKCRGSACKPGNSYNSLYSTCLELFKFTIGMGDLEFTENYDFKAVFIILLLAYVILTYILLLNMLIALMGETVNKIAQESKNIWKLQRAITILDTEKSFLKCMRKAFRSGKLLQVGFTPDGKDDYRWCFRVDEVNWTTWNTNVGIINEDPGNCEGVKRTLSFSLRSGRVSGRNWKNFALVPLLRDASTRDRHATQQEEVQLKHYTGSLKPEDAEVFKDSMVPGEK
T2 sequence (O35433 whole entry): as above
T3 sequence (O35433 whole entry Y511G): as the sequence (O35433 whole entry) above, with Y511G counted along it

As to `C=C1C[C@H]2CCC[C@H]3CC(=O)O[C@@]23C1` [Compound 10], the “compound-evoked calcium response normalized to the capsaicin (2 μM)-evoked response” value at rat TRPV1 (rTRPV1) [1] is “active compounds”.

As for `O=C1C[C@@H]2CC[C@@H]3CC=CC[C@]32O1` [Compound 13], at rTRPV1 [2], the EC50 is 127 ± 8.9 µM; the Hill coefficient n was 2.7 and 2.7±0.5. Also, in the test with chicken TRPV1, the “activation of chicken TRPV1 (intracellular calcium)” value is reported as “did not activate”. Besides, at rat TRPV1 (rTRPV1) [1], the “compound-evoked calcium response normalized to the capsaicin (2 μM)-evoked response” value is listed as “unexpectedly robust response”. In addition, in test [3], the “selectivity to TRPV1: neuronal response” value is on record as “activated only capsaicin sensitive neurons”. The “activation of VBS-mutated rTRPV1-Y511G (intracellular calcium)” value at rTRPV1(Y511G) was “did not activate”.

As for `CC1C[C@H]2CCC[C@H]3CC(=O)O[C@@]23C1` (some centres unmarked) [Compound 15], the “compound-evoked calcium response normalized to the capsaicin (2 μM)-evoked response” value on rat TRPV1 (rTRPV1) [1] is listed as “active compounds”.

For `O=C1C[C@@H]2CC[C@@H]3CCCC[C@]32O1` [Compound 18], the “compound-evoked calcium response normalized to the capsaicin (2 μM)-evoked response” value at rat TRPV1 (rTRPV1) [1] is “most dramatic decrease in the level of activation”. The “inhibitory effect on the response of compound 13” value on rat TRPV1 (rTRPV1) [4] was “had no effect”.

`O=C1C[C@@H]2CC[C@H]3C/C(=C/c4ccccc4)C[C@@]23O1` [Compound 23]: on rat TRPV1 (rTRPV1) [1], the “compound-evoked calcium response normalized to the capsaicin (2 μM)-evoked response” value is on record as “no activity was detected”.

For `O=C1O[C@@]23CC=CC[C@H]2CC[C@H]3[C@H]1Cc1ccccc1` [Compound 31], on rat TRPV1 (rTRPV1) [1], the “compound-evoked calcium response normalized to the capsaicin (2 μM)-evoked response” value is given as “strongest response; also recorded: capsaicin-like activity”.

With `COc1cc(C[C@H]2C(=O)O[C@@]34CC=CC[C@H]3CC[C@@H]24)ccc1O` [Compound 32], on rTRPV1 [2], the EC50 was 12.8 ± 1.6 µM; the Hill coefficient n was 1.4 and 1.4±0.2. The “current-voltage profile, whole-cell patch clamp” value at rTRPV1 [5] is reported as “robust, outwardly rectifying currents of similar magnitude; also recorded: elicits the typical TRPV1 outwardly rectifying current”. Besides, the “compound-evoked calcium response normalized to the capsaicin (2 μM)-evoked response” value on rat TRPV1 (rTRPV1) [1] is recorded as “strongest response; also recorded: capsaicin-like activity”.

As to `O=C1O[C@@]23CCCC[C@H]2CC[C@H]3[C@H]1Cc1ccccc1` [Compound 34], the “compound-evoked calcium response normalized to the capsaicin (2 μM)-evoked response” value at rat TRPV1 (rTRPV1) [1] is “significant channel activation”. Besides, the “time course of the evoked calcium response” value at rat TRPV1 (rTRPV1) [1] (compound 300 μM, compared to compound 13 or 32) was “transiently response”.

Turning to `COc1cc(CNC(=O)CCCC/C=C/C(C)C)ccc1O` [capsaicin, reference compound], the “current-voltage profile, whole-cell patch clamp” value on rTRPV1 [5] is recorded as “robust, outwardly rectifying currents of similar magnitude”.

`Oc1cc2c(cc1O)CN(C(=S)NCCc1ccc(Cl)cc1)CCC2` [capsazepine, reference compound]: the “inhibition of TRPV1 activation by compound 32” value at rTRPV1 [2] (CPZ 20 μM, pre-incubation or application after pre-activation by 32 (100 and 300 μM)) is “resulted in channel inhibition”.
